The values below come from patent US6416975B1 (Gliatech, Inc., priority 1998, dated 2002).

What is called Km is the concentration of substrate that gives half-maximal velocity.

Data set [1] concerns the target T1, hGlyT2 transporter (full-length) (Homo sapiens, UniProt Q9Y345, G24S/N188D/Q362L/R74W/S155G/T582S/V431A).
T1 sequence (Q9Y345 1-797 G24S/R74W/S155G/N188D/Q362L/V431A/T582S): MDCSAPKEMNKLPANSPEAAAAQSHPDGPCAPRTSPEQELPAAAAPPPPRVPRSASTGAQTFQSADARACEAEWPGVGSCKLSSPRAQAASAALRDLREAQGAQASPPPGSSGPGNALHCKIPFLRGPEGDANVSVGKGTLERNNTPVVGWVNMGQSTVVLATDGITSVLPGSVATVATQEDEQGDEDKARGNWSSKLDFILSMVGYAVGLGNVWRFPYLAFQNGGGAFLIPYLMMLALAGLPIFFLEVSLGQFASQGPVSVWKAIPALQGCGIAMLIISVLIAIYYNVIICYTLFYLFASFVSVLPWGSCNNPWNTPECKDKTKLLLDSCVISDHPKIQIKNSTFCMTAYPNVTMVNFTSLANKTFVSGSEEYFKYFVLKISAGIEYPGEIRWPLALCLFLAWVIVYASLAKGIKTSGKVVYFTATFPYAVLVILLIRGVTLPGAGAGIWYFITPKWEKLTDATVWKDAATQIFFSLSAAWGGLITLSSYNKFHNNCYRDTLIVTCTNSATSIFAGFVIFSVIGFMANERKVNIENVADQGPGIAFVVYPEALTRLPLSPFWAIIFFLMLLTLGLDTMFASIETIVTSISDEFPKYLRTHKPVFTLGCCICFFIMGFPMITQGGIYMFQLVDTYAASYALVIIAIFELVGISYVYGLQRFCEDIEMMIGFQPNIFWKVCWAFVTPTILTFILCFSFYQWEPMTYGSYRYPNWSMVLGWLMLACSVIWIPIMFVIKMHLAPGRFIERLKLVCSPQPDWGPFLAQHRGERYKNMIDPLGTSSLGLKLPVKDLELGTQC
The settings on record: full-length hGlyT2, COS-7 cells.

For data set [2], the target named is T2, truncated hGlyT2 (start at Met-154, lacking the first 153 amino acids) (Homo sapiens, UniProt Q9Y345, N188D/Q362L/S155G/T582S/V431A).
T2 sequence (Q9Y345 154-797 S155G/N188D/Q362L/V431A/T582S): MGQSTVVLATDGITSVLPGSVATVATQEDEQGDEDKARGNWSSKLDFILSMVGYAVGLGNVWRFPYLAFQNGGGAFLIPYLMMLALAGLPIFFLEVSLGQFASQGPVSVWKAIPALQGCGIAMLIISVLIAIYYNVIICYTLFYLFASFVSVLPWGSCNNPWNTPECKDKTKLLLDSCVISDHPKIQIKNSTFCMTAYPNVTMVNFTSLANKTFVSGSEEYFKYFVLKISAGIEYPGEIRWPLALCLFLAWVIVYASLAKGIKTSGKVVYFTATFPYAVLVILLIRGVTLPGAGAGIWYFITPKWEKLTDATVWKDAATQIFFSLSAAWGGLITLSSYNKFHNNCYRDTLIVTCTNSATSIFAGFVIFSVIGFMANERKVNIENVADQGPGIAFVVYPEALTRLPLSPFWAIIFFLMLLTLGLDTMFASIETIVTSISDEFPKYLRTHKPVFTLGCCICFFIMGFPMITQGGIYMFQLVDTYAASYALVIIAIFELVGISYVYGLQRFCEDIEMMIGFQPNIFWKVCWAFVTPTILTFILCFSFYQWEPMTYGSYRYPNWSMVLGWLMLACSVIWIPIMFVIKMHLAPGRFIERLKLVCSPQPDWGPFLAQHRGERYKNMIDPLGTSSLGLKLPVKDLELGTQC
The settings on record: truncated hGlyT2, COS-7 cells.

For data set [3], the target named is T3, rat GlyT2 (Rattus norvegicus, UniProt P58295).
T3 sequence (P58295 1-799): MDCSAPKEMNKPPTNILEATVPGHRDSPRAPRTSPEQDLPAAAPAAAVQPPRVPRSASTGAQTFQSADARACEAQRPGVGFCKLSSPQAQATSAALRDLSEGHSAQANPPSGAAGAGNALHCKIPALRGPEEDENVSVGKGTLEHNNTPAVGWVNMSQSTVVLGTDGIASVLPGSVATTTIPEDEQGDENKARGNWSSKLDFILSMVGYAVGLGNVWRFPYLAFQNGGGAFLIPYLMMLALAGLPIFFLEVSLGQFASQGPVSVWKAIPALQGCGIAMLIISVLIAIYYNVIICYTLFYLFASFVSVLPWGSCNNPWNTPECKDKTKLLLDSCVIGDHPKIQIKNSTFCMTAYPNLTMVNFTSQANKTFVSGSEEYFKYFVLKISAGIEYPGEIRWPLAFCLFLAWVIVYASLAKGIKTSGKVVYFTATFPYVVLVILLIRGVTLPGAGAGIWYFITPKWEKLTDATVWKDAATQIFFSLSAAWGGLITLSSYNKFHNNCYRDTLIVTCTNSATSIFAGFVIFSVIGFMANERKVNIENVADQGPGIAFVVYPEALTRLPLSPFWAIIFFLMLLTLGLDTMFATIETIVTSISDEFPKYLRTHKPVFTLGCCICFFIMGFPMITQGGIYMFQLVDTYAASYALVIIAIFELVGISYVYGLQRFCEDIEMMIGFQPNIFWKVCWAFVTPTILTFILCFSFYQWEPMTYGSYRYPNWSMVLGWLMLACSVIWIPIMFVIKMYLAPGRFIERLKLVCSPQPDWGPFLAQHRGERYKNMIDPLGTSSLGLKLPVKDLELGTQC
The settings on record: Liu et al. 1993, cited from earlier work.

Data set [4] has as its target T4, GlyT1 (Homo sapiens, UniProt P48067).
T4 sequence (P48067 1-706): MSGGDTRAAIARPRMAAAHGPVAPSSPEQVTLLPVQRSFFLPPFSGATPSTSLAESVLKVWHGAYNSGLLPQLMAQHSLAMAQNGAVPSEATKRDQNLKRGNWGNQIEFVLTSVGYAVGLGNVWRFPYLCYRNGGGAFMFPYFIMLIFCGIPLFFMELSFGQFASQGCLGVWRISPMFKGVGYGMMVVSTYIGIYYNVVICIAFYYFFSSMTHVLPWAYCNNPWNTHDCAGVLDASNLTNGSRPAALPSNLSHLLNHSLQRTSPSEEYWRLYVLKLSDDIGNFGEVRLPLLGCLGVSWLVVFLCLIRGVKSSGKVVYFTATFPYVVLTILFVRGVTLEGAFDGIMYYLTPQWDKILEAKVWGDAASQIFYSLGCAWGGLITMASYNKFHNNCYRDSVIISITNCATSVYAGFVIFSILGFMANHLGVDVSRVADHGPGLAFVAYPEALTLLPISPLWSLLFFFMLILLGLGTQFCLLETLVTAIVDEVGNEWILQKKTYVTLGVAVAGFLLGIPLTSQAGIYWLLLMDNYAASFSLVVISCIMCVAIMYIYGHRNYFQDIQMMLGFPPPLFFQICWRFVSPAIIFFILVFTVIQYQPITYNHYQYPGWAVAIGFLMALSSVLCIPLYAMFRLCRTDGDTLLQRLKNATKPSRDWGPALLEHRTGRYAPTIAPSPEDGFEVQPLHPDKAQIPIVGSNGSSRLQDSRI
The settings on record: sarcosine concentration exceeds 200 μM; cited from earlier work.

Substrate in data set [5]: NCC(=O)O
In words: cells, lysate or membranes. The settings on record: pH 7.4.

The mark [6] stands for this setting: 1 mM sarcosine, 15 min pretreatment.

As for `NCC(=O)O` [glycine], in data set [1], the “Vmax of glycine uptake (Eadie-Hofstee)” value is 190±3 pmol glycine/mg protein/min. For the same molecule, the “Vmax of glycine uptake” value in data set [2] is 67±3 pmol glycine/mg protein/min. Moreover, in data set [3] (read-out: Km reported for rat GlyT2), the Km was 13 µM.
Turning to `CNCC(=O)O` [sarcosine], the “reduction of glycine uptake” value in data set [1] (setting [6]) and in data set [2] (setting [6]) was “less than 15%” each time. The “effect of increasing concentrations of sarcosine on glycine uptake (FIG. 5)” value in data set [1] and in data set [2] was “insensitive to sarcosine inhibition” in each case. Also, in data set [3] (sarcosine 1 mM), the “inhibition of rat GlyT2-mediated glycine uptake” value was 10-20%. The “inhibition of GlyT1-mediated glycine uptake” value in data set [4] is “almost completely inhibited”.

B1: truncated hGlyT2 (start at Met-154, lacking the first 153 amino acids) (Homo sapiens; N188D/Q362L/S155G/T582S/V431A) (protein)
chain: MGQSTVVLATDGITSVLPGSVATVATQEDEQGDEDKARGNWSSKLDFILSMVGYAVGLGNVWRFPYLAFQNGGGAFLIPYLMMLALAGLPIFFLEVSLGQFASQGPVSVWKAIPALQGCGIAMLIISVLIAIYYNVIICYTLFYLFASFVSVLPWGSCNNPWNTPECKDKTKLLLDSCVISDHPKIQIKNSTFCMTAYPNVTMVNFTSLANKTFVSGSEEYFKYFVLKISAGIEYPGEIRWPLALCLFLAWVIVYASLAKGIKTSGKVVYFTATFPYAVLVILLIRGVTLPGAGAGIWYFITPKWEKLTDATVWKDAATQIFFSLSAAWGGLITLSSYNKFHNNCYRDTLIVTCTNSATSIFAGFVIFSVIGFMANERKVNIENVADQGPGIAFVVYPEALTRLPLSPFWAIIFFLMLLTLGLDTMFASIETIVTSISDEFPKYLRTHKPVFTLGCCICFFIMGFPMITQGGIYMFQLVDTYAASYALVIIAIFELVGISYVYGLQRFCEDIEMMIGFQPNIFWKVCWAFVTPTILTFILCFSFYQWEPMTYGSYRYPNWSMVLGWLMLACSVIWIPIMFVIKMHLAPGRFIERLKLVCSPQPDWGPFLAQHRGERYKNMIDPLGTSSLGLKLPVKDLELGTQC
For the molecule B1, the Km in data set [5] (other: truncated hGlyT2, COS-7 cells, 37.0 °C) is 9 ± 1 µM.

B2: hGlyT2 transporter (full-length) (Homo sapiens; G24S/N188D/Q362L/R74W/S155G/T582S/V431A) (protein)
chain: MDCSAPKEMNKLPANSPEAAAAQSHPDGPCAPRTSPEQELPAAAAPPPPRVPRSASTGAQTFQSADARACEAEWPGVGSCKLSSPRAQAASAALRDLREAQGAQASPPPGSSGPGNALHCKIPFLRGPEGDANVSVGKGTLERNNTPVVGWVNMGQSTVVLATDGITSVLPGSVATVATQEDEQGDEDKARGNWSSKLDFILSMVGYAVGLGNVWRFPYLAFQNGGGAFLIPYLMMLALAGLPIFFLEVSLGQFASQGPVSVWKAIPALQGCGIAMLIISVLIAIYYNVIICYTLFYLFASFVSVLPWGSCNNPWNTPECKDKTKLLLDSCVISDHPKIQIKNSTFCMTAYPNVTMVNFTSLANKTFVSGSEEYFKYFVLKISAGIEYPGEIRWPLALCLFLAWVIVYASLAKGIKTSGKVVYFTATFPYAVLVILLIRGVTLPGAGAGIWYFITPKWEKLTDATVWKDAATQIFFSLSAAWGGLITLSSYNKFHNNCYRDTLIVTCTNSATSIFAGFVIFSVIGFMANERKVNIENVADQGPGIAFVVYPEALTRLPLSPFWAIIFFLMLLTLGLDTMFASIETIVTSISDEFPKYLRTHKPVFTLGCCICFFIMGFPMITQGGIYMFQLVDTYAASYALVIIAIFELVGISYVYGLQRFCEDIEMMIGFQPNIFWKVCWAFVTPTILTFILCFSFYQWEPMTYGSYRYPNWSMVLGWLMLACSVIWIPIMFVIKMHLAPGRFIERLKLVCSPQPDWGPFLAQHRGERYKNMIDPLGTSSLGLKLPVKDLELGTQC
As for B2, in data set [5] (other: full-length hGlyT2, COS-7 cells, 15 min at 37° C.), the Km was found to be 10 ± 0.4 µM.
